The values that follow are results of earlier work, collected in patent US20140017336A1, “CO-ADMINISTRATION OF ARSENIC COMPOUNDS AND ANTI-HERPES VIRUS ANTI-VIRALS” (priority 2011, published 2014).

The conditions of this data set: dosage of ATO approved for relapsed or refractory acute promyelocytic leukemia (Fox et al., 2008); cited from earlier work.

On to arsenic trioxide [ATO], for which the “peak serum arsenic level” value is on record as around 400 nM.
